What all share (assay type): in vivo, mouse
The subject of data set [1] is mdx; Dysf-null; Sgcg-null mice. Description: Once-weekly glucocorticoids in three murine models of muscle disease. To be noted: 1 mg/kg once-weekly, contrary to daily dosing. From the text: Glucocorticoid steroids are widely prescribed drugs for chronic inflammatory conditions, and their daily intake generally correlates with muscle wasting and weakness, osteoporosis, obesity and metabolic disorders. […] (Quattrocelli et al, J Clin Invest 2017; Quattrocelli et al, Am J Pathol 2017; Quattrocelli et al., JCI Insight. 2019 Dec. 19; 4(24). pii: 132402. doi: 10.1172/jci.insight.132402).

Data set [2] has as its system GRE-KRE genomic sites (Mef2C, Bckdha, Pck1, Nmnat3). The data set can be described thus: Luciferase reporter experiments in electroporated mdx myofibers. To be noted: prednisone pulse 1 mg/kg combined with Klf15 overexpression. From the text:
Luciferase experiments in live myofibers. Luciferase plasmids containing regulatory fragments were obtained cloning genomic sequences in the pGL4.23 backbone (#E8411; Promega, Madison, Wis.) using the KpnI-XhoI sites upstream of the minimal promoter site. Fragments were cloned conserving the genomic orientation with regards to transcriptional orientation, adding KpnI and XhoI tails to the appropriate extremities via Phusion PCR. Wildtype fragments […] were cloned from wildtype C57Bl/6J genomic DNA, while mutated fragments (Δ sites) were amplified from ad-hoc synthetized DNA oligonucleotides, using genomic sequences from the C57Bl/6J genomic background (see Table 5 for a complete list of sequences). Flexor digitorum brevis (FDB) fibers were transfected by in vivo electroporation. Methods were described previously in (DiFranco et al., 2009) with modifications described in (Demonbreun and McNally, 2015). Briefly, the hindlimb footpad was injected with 10 μl hyaluronidase (8 units) (Cat #H4272, Sigma, St. Louis, Mo.). […] Ex vivo luciferase assay was performed on whole, electroporated FDB muscles. […] Luminescence was recorded at the Synergy HTX multi-mode 96-well plate reader (BioTek®, Winooski, Vt.). […] Results are expressed as fold change to average vehicle. All luciferase quantitation assays were conducted blinded to treatment groups. […]
In general terms: In a reporter assay the amount or activity of a reporter protein is the signal.

In another data set the test system is mdx mice. The data set can be described thus: Glycemia monitoring, insulin sensitivity, glucose and pyruvate tolerance tests, adipocyte histology in mdx mice. The procedure:
Glucose was measured in blood (first drop from tail venipuncture) or serum (5 μl of 1:2 dilution) with an AimStrip Plus glucometer system (Germaine Laboratories, San Antonio, Tex.) and expressed as mg/dl values. Lactate was measured in blood (second drop from tail venipuncture) or serum (5 μl of 1:2 dilution) with a Lactate Plus reader (Nova Biomedical, Waltham, Mass.) and expressed as mM values. Fasting glycemia was measured in mice after 4 hours fasting (7 AM-11 AM). Glucose, insulin and pyruvate tolerance tests were conducted after 4 hours fasting in individual cages immediately after baseline fasting glucose monitoring. Mice were injected with either 1 g/kg glucose (#D8375-1 g; Millipore Sigma, St Louis, Mo.), or 0.5 U/kg insulin (#12585014; Thermo Fisher, Waltham, Mass.), or 2.5 g/kg pyruvate (#P5280-25 g; Millipore Sigma, St Louis, Mo.) in 200 μl intraperitoneal injections, and glucose was then monitored by tail venipuncture at 10 min, 20 min, 30 min, 60 min, 120 min after injection. All glucose and pyruvate tolerance tests were conducted blinded to treatment groups.
Histology. Excised tissues (muscles, omental fat, heart) were placed in 10% formaldehyde (Cat #245-684; Fisher Scientific, Waltham, Mass.) for histologic processing. Seven μm sections from the center of paraffin-embedded muscles were stained with hematoxylin and eosin (H&E; cat #12013B, 1070C; Newcomer Supply, Middleton, Wis.) and Masson's trichrome (Cat #HT-15; Sigma-Aldrich; St. Louis, Mo.). Myofiber/adipocyte CSA quantitation was conducted on 400 myofibers/adipocytes per tissue per mouse. Imaging was performed using a Zeiss Axio Observer A1 microscope, using 10× and 20× (short-range) objectives. Brightfield pictures were acquired via Gryphax software (version 1.0.6.598; Jenoptik, Jena, Germany). Area quantitation was performed by means of ImageJ (Schneider et al., 2012). Sample processing, imaging and CSA quantitation were conducted blinded to treatment groups.

These results are taken from US20220062299A1, “USE OF GLUCOCORTICOID STEROIDS IN PREVENTING AND TREATING CONDITIONS OF MUSCLE WASTING, AGING AND METABOLIC DISORDER” (NORTHWESTERN UNIVERSITY, priority 2018, published 2022).

As to `C[C@]12C=CC(=O)C=C1CC[C@@H]1[C@@H]2C(=O)C[C@@]2(C)[C@H]1CC[C@]2(O)C(=O)CO` [prednisone, Prednisone], the “muscle force and mass” value in data set [1] is “improved”. Moreover, the “Fluc reporter activity of GRE-KRE constructs” value in data set [2] is on record as “additive effect”. Further, in the data set with mdx mice (daily prednisone), the adipocyte hypertrophy result is reported as “induced adipocyte hypertrophy”; the “endpoint glucose and pyruvate tolerance tests” value is “induced glucose intolerance and pyruvate intolerance”; the glucose homeostasis entry was “impaired”; the insulin resistance result is reported as “induced insulin resistance”. Also, the Glycemia entry in the data set with mdx mice (daily prednisone, over treatment) is on record as “progressively increased”. Besides, in the data set on mdx mice (weekly prednisone), the “endpoint glucose tolerance test” value is given as “did not increase glucose intolerance” and the insulin sensitivity result was “higher”.
